Laboratory results reported in ChEMBL document CHEMBL1149146, “Synthesis and biological evaluation of new 1,2-dihydro-4-hydroxy-2-oxo-3-quinolinecarboxamides for treatment of autoimmune disorders: structure-activity relationship” (2004).

Experiments:
Assay type in all cases: functional
Mus musculus [1] = experiment: Inhibition of acute experimental autoimmune encephalomyelitis (aEAE) in SJL/N mice at a dose of 1 mg/kg/day, (po/sc) was determined
Mus musculus [2] = experiment: Inhibition of acute experimental autoimmune encephalomyelitis (aEAE) in SJL/N mice at a dose of 5 mg/kg/day, (po/sc) was determined
Mus musculus [3] = experiment: Inhibition of acute experimental autoimmune encephalomyelitis in SJL/N mice by 0.2 mg/kg/day p.o./s.c.; conditions: po
Mus musculus [4] = experiment: Inhibition of acute experimental autoimmune encephalomyelitis (aEAE) induced in SJL/N mice at a dose of 5 mg/kg/day, (po/sc) was determined; Inactive
Mus musculus [5] = experiment: Inhibition of acute experimental autoimmune encephalomyelitis (aEAE) induced in SJL/N mice at a dose of 1 mg/kg/day, (po/sc) was determined; Inactive
Mus musculus [6] = experiment: Inhibition of acute experimental autoimmune encephalomyelitis (aEAE) induced in SJL/N mice at a dose of 0.2 mg/kg/day, (po/sc) was determined; Inactive
Mus musculus [7] = experiment: Inhibition of acute experimental autoimmune encephalomyelitis in SJL/N mice by 1 mg/kg/day p.o./s.c.; conditions: route oral
Mus musculus [8] = experiment: Inhibition of acute experimental autoimmune encephalomyelitis in SJL/N mice by 5 mg/kg/day p.o./s.c.; conditions: route oral
Mus musculus [9] = experiment: Inhibition of acute experimental autoimmune encephalomyelitis (aEAE) induced in SJL/N mice at a dose of 1 mg/kg/day, (sc) was determined; Inactive
Mus musculus [10] = experiment: Inhibition of acute experimental autoimmune encephalomyelitis (aEAE) induced in SJL/N mice at a dose of 0.2 mg/kg/day, (sc) was determined; Inactive
Mus musculus [11] = experiment: Inhibition of acute experimental autoimmune encephalomyelitis (aEAE) induced in SJL/N mice at a dose of 5 mg/kg/day was determined

CN(C(=O)c1c(O)c2ccccc2n(C)c1=O)c1ccccc1 [ROQUINIMEX]
inhibition in vivo at 1 mg/kg/day (Mus musculus [1]): 43% | inhibition in vivo at 5 mg/kg/day (Mus musculus [2]): 71% | inhibition in vivo at 0.2 mg/kg/day (Mus musculus [3]): 35%

COc1ccc(N(C)C(=O)c2c(O)c3ccccc3n(C3CC3)c2=O)cc1
inhibition in vivo at 5 mg/kg/day (Mus musculus [4]): < 35% | inhibition in vivo at 1 mg/kg/day (Mus musculus [5]): < 35%

CCN(C(=O)c1c(O)c2cc(Cl)ccc2n(C)c1=O)c1ccccc1
inhibition in vivo at 0.2 mg/kg/day (Mus musculus [6]): < 35% | inhibition in vivo at 1 mg/kg/day (Mus musculus [7]): 62% | inhibition in vivo at 5 mg/kg/day (Mus musculus [8]): 83%

CN(C(=O)c1c(O)c2cccc(F)c2n(C)c1=O)c1ccc(F)cc1
inhibition in vivo at 1 mg/kg/day (Mus musculus [9]): < 35% | inhibition in vivo at 0.2 mg/kg/day (Mus musculus [10]): < 35% | inhibition in vivo at 5 mg/kg/day (Mus musculus [11]): 55%
